Common to all, as to format: functional, cell-based, Oocyte
For data set [1], the target named is T1, Solute carrier organic anion transporter family member 1A2 (OATP1A2) (Homo sapiens, UniProt P46721).
T1 sequence (P46721 whole entry): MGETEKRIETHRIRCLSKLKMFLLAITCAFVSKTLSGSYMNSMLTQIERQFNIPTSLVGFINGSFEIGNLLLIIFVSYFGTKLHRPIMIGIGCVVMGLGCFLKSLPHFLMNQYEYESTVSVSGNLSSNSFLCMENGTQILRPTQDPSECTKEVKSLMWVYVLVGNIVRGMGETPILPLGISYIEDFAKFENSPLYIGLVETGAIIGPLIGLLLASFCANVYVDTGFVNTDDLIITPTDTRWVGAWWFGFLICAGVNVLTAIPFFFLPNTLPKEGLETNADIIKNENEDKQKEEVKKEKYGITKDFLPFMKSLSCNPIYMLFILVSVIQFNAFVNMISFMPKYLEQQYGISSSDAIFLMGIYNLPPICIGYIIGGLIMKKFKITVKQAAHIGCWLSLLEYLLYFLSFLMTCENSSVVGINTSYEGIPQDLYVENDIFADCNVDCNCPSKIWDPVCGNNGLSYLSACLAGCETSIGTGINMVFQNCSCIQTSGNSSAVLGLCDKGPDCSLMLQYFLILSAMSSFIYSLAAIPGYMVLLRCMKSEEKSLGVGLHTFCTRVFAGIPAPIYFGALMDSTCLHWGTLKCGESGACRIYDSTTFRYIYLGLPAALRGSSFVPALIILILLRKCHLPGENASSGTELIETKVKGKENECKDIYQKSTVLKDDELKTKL
The data set is described as follows: TP_TRANSPORTER: inhibition of DHEAS uptake (DHEAS: 5 uM, Dexamethasone: 100 uM) in Xenopus laevis oocytes. The following applies: Xenopus laevis oocytes expressing OATP1A2 (SLCO1A2), probe DHEAS (5 uM).

Data set [2] deals with T1, Solute carrier organic anion transporter family member 1A2 (OATP1A2). The data set is described as follows: TP_TRANSPORTER: inhibition of DHEAS uptake (DHEAS: 5 uM, TUDC: 100 uM) in Xenopus laevis oocytes. The conditions noted are these: Xenopus laevis oocytes expressing OATP1A2 (SLCO1A2), probe DHEAS (5 uM).
The target is the same in data set [3]. Put plainly: TP_TRANSPORTER: inhibition of DHEAS uptake (DHEAS: 5 uM, TCDC: 100 uM) in Xenopus laevis oocytes. The conditions noted are these: Xenopus laevis oocytes expressing OATP1A2 (SLCO1A2), probe DHEAS (5 uM).
Data set [4] shares this target. The data set is described as follows: TP_TRANSPORTER: inhibition of DHEAS uptake (DHEAS: 5 uM, Estradiol-3-sulfate: 100 uM) in Xenopus laevis oocytes. The conditions noted are these: Xenopus laevis oocytes expressing OATP1A2 (SLCO1A2), probe DHEAS (5 uM).
The target is the same in data set [5]. Put plainly: TP_TRANSPORTER: inhibition of DHEAS uptake (DHEAS: 5 uM, E1S: 100 uM) in Xenopus laevis oocytes. The conditions noted are these: Xenopus laevis oocytes expressing OATP1A2 (SLCO1A2), probe DHEAS (5 uM).
Data set [6] has the same target. The data set is described as follows: TP_TRANSPORTER: uptake in Xenopus laevis oocytes. The following applies: Xenopus laevis oocytes expressing OATP1A2 (SLCO1A2).

`C[C@@H]1C[C@H]2[C@@H]3CCC4=CC(=O)C=C[C@]4(C)[C@@]3(F)[C@@H](O)C[C@]2(C)[C@@]1(O)C(=O)CO` [DEXAMETHASONE]: in data set [1], the inhibition at 100 µM stood at 97.3%.
As for `C[C@H](CCC(=O)NCCS(=O)(=O)O)[C@H]1CC[C@H]2[C@@H]3[C@@H](O)C[C@@H]4C[C@H](O)CC[C@]4(C)[C@H]3CC[C@]12C` [TAURURSODIOL], the inhibition at 100 µM in data set [2] came out at 85.7%.
In data set [3], `C[C@H](CCC(=O)NCCS(=O)(=O)O)[C@H]1CC[C@H]2[C@@H]3[C@H](O)C[C@@H]4C[C@H](O)CC[C@]4(C)[C@H]3CC[C@]12C` [TAUROCHENODEOXYCHOLATE] had an inhibition at 100 µM of 75.2%.
Molecule `C[C@]12CC[C@@H]3c4ccc(OS(=O)(=O)O)cc4CC[C@H]3[C@@H]1CC[C@@H]2O` came in with an inhibition at 100 µM in data set [4] of 92.9%.
`C[C@]12CC[C@@H]3c4ccc(OS(=O)(=O)O)cc4CC[C@H]3[C@@H]1CCC2=O` [ESTRONE SULFURIC ACID]: the inhibition at 100 µM in data set [5] came out at 82.3%.
As to `C[C@]12CC[C@H](OS(=O)(=O)O)CC1=CC[C@@H]1[C@@H]2CC[C@]2(C)C(=O)CC[C@@H]12` [PRASTERONE SULFURIC ACID], the Km in data set [6] was determined as 6.6 µM.

(Values after ChEMBL document CHEMBL2073949, “Dehydroepiandrosterone sulfate (DHEAS): identification of a carrier protein in human liver and brain” (FEBS Lett, 1998).)
